According to patent US20080096933A1, “4-Pyridinylethylcarboxamide Derivatives Useful as Fungicides” (priority 2004, published 2008):

Assays:
Pyrenophora teres = experiment: In vivo test on Pyrenophora teres (barley net blotch); settings: barley plants (Express variety), preventive spray, dose of 330 ppm, grading 12 days after contamination, in comparison with control plants
Description: In Vivo Test on Pyrenophora teres (Barley Net Blotch)
The active ingredient tested is prepared by potter homogenisation in a concentrated suspension type formulation at 100 g/l. This suspension is then diluted with water to obtain the desired active material concentration.
Barley plants (Express variety) in starter cups, sown on a 50/50 peat soil-pozzolana substrate and grown at 12° C., are treated at the 1-leaf stage (10 cm tall) by spraying with the aqueous suspension described above. Plants, used as controls, are treated with an aqueous solution not containing the active material.
After 24 hours, the plants are contaminated by spraying them with an aqueous suspension of Pyrenophora teres spores (12,000 spores per ml). The spores are collected from a 12-day-old culture The contaminated barley plants are incubated for 24 hours at about 20° C. and at 100% relative humidity, and then for 12 days at 80% relative humidity.
Grading is carried out 12 days after the contamination, in comparison with the control plants. Under these conditions, good (at least 50%) or total protection is observed at a dose of 330 ppm with the following compounds: A-1.

Peronospora parasitica = experiment: Efficacy against Peronospora parasitica at 330 ppm; format: in vivo
Alternaria brassicae = experiment: Effectiveness on Alternaria brassicae at 330 ppm; format: in vivo
Botrytis cinerea = experiment: Effectiveness on Botrytis cinerea at 330 ppm; format: in vivo

| Structure (SMILES) | protection (good (at least 50%) or total) (Pyrenophora teres) | efficacy against Peronospora parasitica (Peronospora parasitica) | effectiveness on Alternaria brassicae (Alternaria brassicae) | effectiveness on Botrytis cinerea (Botrytis cinerea) |
| --- | --- | --- | --- | --- |
| Cn1cc(C(=O)NCCc2c(F)c(F)nc(F)c2F)c(C(F)F)n1 [Compound A-1, 3-(difluoromethyl)-1-methyl-N-[2-(2,3,5,6-tetrafluoro-4-pyridinyl)ethyl]-1H-pyrazole-4-carboxamide] | at least 50% |  |  |  |
| O=C(Cc1cccs1)NCc1ncc(C(F)(F)F)cc1Cl [compound 101, N-{[3-chloro-5-(trifluoromethyl)-2-pyridinyl]methyl}-5-thienylacetamide] |  | no efficacy | poor efficacy | no efficacy |
| CCNC(=O)C(Cc1ncc(C(F)(F)F)cc1Cl)NC(=O)c1ccccc1 (stereo not shown) [compound 304, N-{1-ethylcarbamoyl-2-[3-chloro-5-(trifluoromethyl)-2-pyridinyl]ethyl}-benzamide] |  |  |  | zero effectiveness |
| CCNC(=O)C(Cc1ncc(C(F)(F)F)cc1Cl)NC(=O)c1ccc(Cl)cc1 (stereo not shown) [compound 306, N-{1-ethylcarbamoyl-2-[3-chloro-5-(trifluoromethyl)-2-pyridinyl]ethyl}-4-chlorobenzamide] |  |  |  | zero effectiveness |
| CCNC(=O)C(Cc1ncc(C(F)(F)F)cc1Cl)NC(=O)c1cccc([N+](=O)[O-])c1 (stereo not shown) [compound 307, N-{1-ethylcarbamoyl-2-[3-chloro-5-(trifluoromethyl)-2-pyridinyl]ethyl}-3-nitrobenzamide] |  |  | poor effectiveness | zero effectiveness |
| CCNC(=O)C(Cc1ncc(C(F)(F)F)cc1Cl)NC(=O)c1ccccc1Br (stereo not shown) [compound 310, N-{1-ethylcarbamoyl-2-[3-chloro-5-(trifluoromethyl)-2-pyridinyl]ethyl}-2-bromobenzamide] |  |  |  | zero effectiveness |
| CNC(=O)C(Cc1ncc(C(F)(F)F)cc1Cl)NC(=O)c1ccccc1 (stereo not shown) [compound 314, N-{1-methylcarbamoyl-2-[3-chloro-5-(trifluoromethyl)-2-pyridinyl]ethyl}-benzamide] |  |  |  | zero effectiveness |
| CNC(=O)C(Cc1ncc(C(F)(F)F)cc1Cl)NC(=O)c1ccc(OC)cc1 (stereo not shown) [compound 315, N-{1-methylcarbamoyl-2-[3-chloro-5-(trifluoromethyl)-2-pyridinyl]ethyl}-4-methoxybenzamide] |  |  |  | zero effectiveness |
| CNC(=O)C(Cc1ncc(C(F)(F)F)cc1Cl)NC(=O)c1ccc(-c2ccccc2)cc1 (stereo not shown) [compound 316, N-{1-methylcarbamoyl-2-[3-chloro-5-(trifluoromethyl)-2-pyridinyl]ethyl}-4-phenylbenzamide] |  |  | poor effectiveness | zero effectiveness |
